Measurements: ChEMBL document CHEMBL1201862, “PubChem BioAssay data set” (2004)
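48-hour exposure; five concentrations; linearly interpolated endpoints. GI50: concentration for 50% inhibition of growth.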 Active and inactive are the calls of the source. No stated cut-off is given here; in the data, active = GI50 up to about 1.1 µM and inactive = higher.

What was measured:
Assay in all cases: NCI tumour cell line growth inhibition, 48 h
A498 = system: A498
CAKI-1 = system: CAKI-1
HCC 2998 = system: HCC 2998
HCT-116 = system: HCT-116
HCT-15 = system: HCT-15
HOP-92 = system: HOP-92
Hs-578T = system: Hs-578T
KM12 = system: KM12
LOX IMVI = system: LOX IMVI
M14 = system: M14
MCF7 = system: MCF7
MDA-N = system: MDA-N
OVCAR-8 = system: OVCAR-8
RXF 393 = system: RXF 393
SF-268 = system: SF-268
SK-MEL-28 = system: SK-MEL-28
SK-MEL-2 = system: SK-MEL-2
SN12C = system: SN12C
UACC-257 = system: UACC-257
UACC-62 = system: UACC-62

With CCc1nc(N)nc(N)c1-c1ccc2nn(-c3ccccc3)[n+]([O-])c2c1 the GI50 (A498) was 8.43 µM (inactive), the GI50 (CAKI-1) was 4.47 µM (inactive) and the GI50 (HCC 2998) was 4.59 µM (inactive). The GI50 (HCT-116) was 0.396 µM (active), the GI50 (HCT-15) was 0.697 µM and the GI50 (HOP-92) was 8.91 µM (inactive). The GI50 (Hs-578T) was 17.9 µM (inactive), the GI50 (KM12) was 5.45 µM (inactive) and the GI50 (LOX IMVI) was 1.01 µM (active). For the same molecule, the GI50 (M14) was 1.33 µM (inactive), the GI50 (MCF7) was 4.17 µM (inactive) and the GI50 (MDA-N) was 0.895 µM (active). The GI50 (OVCAR-8) was 2.42 µM (inactive), the GI50 (RXF 393) was 10.3 µM (inactive) and the GI50 (SF-268) was 5.12 µM (inactive). The GI50 (SK-MEL-28) was 11.8 µM (inactive), the GI50 (SK-MEL-2) was 14.3 µM (inactive) and the GI50 (SN12C) was 9.38 µM (inactive). For the same molecule, the GI50 (UACC-257) was 10.6 µM (inactive) and the GI50 (UACC-62) was 1.02 µM (active).
Cc1[nH]c(=O)nc(S)c1C(=O)Nc1cccc2cc3ccccc3cc12 was tested, and the GI50 (A498) was > 100 µM (inactive), the GI50 (CAKI-1) was > 100 µM (inactive) and the GI50 (HCC 2998) was > 100 µM (inactive). The GI50 (HCT-116) was > 100 µM (inactive), the GI50 (HCT-15) was greater than 100 µM and the GI50 (HOP-92) was > 100 µM (inactive). For the same molecule, the GI50 (Hs-578T) was > 100 µM (inactive), the GI50 (KM12) was > 100 µM (inactive) and the GI50 (LOX IMVI) was > 100 µM (inactive). For the same molecule, the GI50 (M14) was > 100 µM (inactive), the GI50 (MCF7) was > 100 µM (inactive) and the GI50 (MDA-N) was > 10 µM (inactive). For the same molecule, the GI50 (OVCAR-8) was > 100 µM (inactive), the GI50 (RXF 393) was > 100 µM (inactive) and the GI50 (SF-268) was > 100 µM (inactive). For the same molecule, the GI50 (SK-MEL-28) was > 100 µM (inactive), the GI50 (SK-MEL-2) was > 100 µM (inactive) and the GI50 (SN12C) was > 100 µM (inactive). For the same molecule, the GI50 (UACC-62) was > 100 µM (inactive).
CCOC(=O)C(c1c[nH]c2ccccc12)(c1c[nH]c2ccccc12)c1c[nH]c2ccccc12 was tested, and the GI50 (A498) was 35.2 µM (inactive), the GI50 (CAKI-1) was 29.4 µM (inactive) and the GI50 (HCC 2998) was 17.1 µM (inactive). The GI50 (HCT-116) was 29.2 µM (inactive), the GI50 (HCT-15) was 34.7 µM and the GI50 (HOP-92) was 37 µM (inactive). The GI50 (Hs-578T) was 23.7 µM (inactive), the GI50 (KM12) was 28.5 µM (inactive) and the GI50 (LOX IMVI) was 31.9 µM (inactive). The GI50 (M14) was 28.3 µM (inactive), the GI50 (MCF7) was 19.7 µM (inactive) and the GI50 (MDA-N) was 31.9 µM (inactive). The GI50 (OVCAR-8) was 36.2 µM (inactive), the GI50 (RXF 393) was 21.7 µM (inactive) and the GI50 (SF-268) was 32.8 µM (inactive). For the same molecule, the GI50 (SK-MEL-28) was 33.7 µM (inactive), the GI50 (SK-MEL-2) was 18.8 µM (inactive) and the GI50 (SN12C) was 43 µM (inactive). For the same molecule, the GI50 (UACC-257) was 34 µM (inactive) and the GI50 (UACC-62) was 25.9 µM (inactive).
With CC1(O)C2(c3ccccc3)CCC[N+]1(C)CC2 (stereo not drawn) the GI50 (A498) was > 100 µM (inactive), the GI50 (CAKI-1) was > 100 µM (inactive) and the GI50 (HCC 2998) was > 100 µM (inactive). For the same molecule, the GI50 (HCT-116) was > 100 µM (inactive), the GI50 (HCT-15) was greater than 100 µM and the GI50 (HOP-92) was > 100 µM (inactive). For the same molecule, the GI50 (Hs-578T) was > 100 µM (inactive), the GI50 (KM12) was > 100 µM (inactive) and the GI50 (LOX IMVI) was > 100 µM (inactive). For the same molecule, the GI50 (M14) was > 100 µM (inactive), the GI50 (MCF7) was > 100 µM (inactive) and the GI50 (MDA-N) was > 100 µM (inactive). The GI50 (OVCAR-8) was > 100 µM (inactive), the GI50 (RXF 393) was > 100 µM (inactive) and the GI50 (SK-MEL-28) was > 100 µM (inactive). The GI50 (SK-MEL-2) was > 100 µM (inactive), the GI50 (SN12C) was > 100 µM (inactive) and the GI50 (UACC-257) was > 100 µM (inactive). The GI50 (UACC-62) was > 100 µM (inactive).
In the case of COc1cc(C2S/C(=C/c3ccccc3)C(=O)N2c2ccc(NC(C)=O)cc2)cc(OC)c1OC (stereo not drawn), the GI50 (A498) is reported as 21.4 µM (inactive), the GI50 (CAKI-1) is reported as 18.8 µM (inactive) and the GI50 (HCC 2998) is reported as 19.7 µM (inactive). For the same molecule, the GI50 (HCT-116) was 12.7 µM (inactive), the GI50 (HCT-15) was 15 µM and the GI50 (HOP-92) was 20.2 µM (inactive). The GI50 (Hs-578T) was 21.2 µM (inactive), the GI50 (KM12) was 14.1 µM (inactive) and the GI50 (LOX IMVI) was 18.2 µM (inactive). The GI50 (M14) was 19.5 µM (inactive), the GI50 (MCF7) was 23.9 µM (inactive) and the GI50 (MDA-N) was 19.3 µM (inactive). The GI50 (OVCAR-8) was 18.5 µM (inactive), the GI50 (RXF 393) was 17.5 µM (inactive) and the GI50 (SF-268) was 17.9 µM (inactive). The GI50 (SK-MEL-28) was 30.8 µM (inactive), the GI50 (SK-MEL-2) was 0.71 µM (active) and the GI50 (SN12C) was 15.8 µM (inactive). For the same molecule, the GI50 (UACC-257) was 37.2 µM (inactive) and the GI50 (UACC-62) was 20 µM (inactive).
